In US12226401B2, “Molecular genetic approach to treatment and diagnosis of alcohol and drug dependence” (priority 2010, dated 2025):
Where two headings read alike, the source gives them in different places.

Tests used:
[1] = dose of 50 mg/day; cited from earlier work
[2] = cited from earlier work
[3] = test system: methamphetamine dependent subjects; assay type: in vivo, human
Protocol: Methods—The study was conducted at 8 sites, 140 subjects consented, screened for study eligibility and met DSM-IV criteria for methamphetamine dependence. Subjects were randomized to topiramate or placebo at 50 mg, escalating to 200 mg topiramate daily over weeks 1-5, and 200 mg daily over weeks 6-12. The primary outcome measure was abstinence from methamphetamine during study weeks 6 through 12. Methamphetamine use was determined using qualitative urine testing at a central laboratory. The primary outcome was analyzed using a Generalized Estimating Equation (GEE) model during weeks 6 through 12. Secondary outcomes included use reduction compared to baseline, relapse rate for subjects with negative urine at randomization, and craving. Blood samples were collected for genetic markers to examine the effects of topiramate on gene expression and to correlate genetic subtypes with response to treatment. RNA samples were collected from whole blood for 50 topiramate- and 49 placebo-treated individuals at baseline and weeks 8 and 12. Genome-wide expression profiles between positive and negative responders for Weeks 8 and 12 from placebo- and topiramate-treated groups were compared.

SMILES	Individuals in alcohol trials unable to tolerate naltrexone [1]	Cognitive impairment reported by individuals who take topiramate ([2]; general population) [%]	Occurrence rate of cognitive impairment ([2]; substance abuse field)	Treatment effect on primary outcome variable (abstinence from methamphetamine, weeks 6-12) ([3]; all subjects)	Treatment effect, exploratory analysis ([3]; subjects (n=26) with negative urine prior to randomization, p=0.02)	Treatment effect, exploratory analysis ([3]; subjects (n=35) whose baseline use was <18 days out of previous 30, p=0.03)
Cl.O=C1CC[C@@]2(O)[C@H]3Cc4ccc(O)c5c4[C@@]2(CCN3CC2CC2)[C@H]1O5 [naltrexone, 17-(Cyclopropylmethyl)-4,5a-epoxy-3,14-dihydroxymorphinan-6-one hydrochloride]	about 15%	–	–	–	–	–
CC1(C)O[C@@H]2[C@@H](CO[C@@]3(COS(N)(=O)=O)OC(C)(C)O[C@@H]23)O1 [topiramate, 2,3:4,5-Bis-O-(1-methylethylidene)-beta-D-fructopyranose sulfamate]	–	2.4	about 18.7%	no significant treatment effect	significant treatment effect	significant treatment effect
